Source: ChEMBL document CHEMBL1142615, “Polyoxygenated dysidea sterols that inhibit the binding of [I125] IL-8 to the human recombinant IL-8 receptor type A” (J Nat Prod, 2000)

Target: T1, C-X-C chemokine receptor type 1 (Homo sapiens, UniProt P25024)
T1 sequence (P25024 whole entry): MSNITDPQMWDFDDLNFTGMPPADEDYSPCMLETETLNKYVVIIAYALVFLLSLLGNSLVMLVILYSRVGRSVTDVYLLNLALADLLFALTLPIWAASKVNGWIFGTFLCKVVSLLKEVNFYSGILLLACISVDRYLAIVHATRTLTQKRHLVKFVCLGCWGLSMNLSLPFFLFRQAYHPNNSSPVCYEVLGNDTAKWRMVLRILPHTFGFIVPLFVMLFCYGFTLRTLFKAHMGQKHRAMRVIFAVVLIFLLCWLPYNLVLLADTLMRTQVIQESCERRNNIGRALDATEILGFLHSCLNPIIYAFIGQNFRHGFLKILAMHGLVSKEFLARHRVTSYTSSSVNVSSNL
Assay: Displacement of [125I]IL8 from human recombinant IL8 type A receptor

| IC50 | SMILES |
| --- | --- |
| 5.5 µM | CC(=O)O[C@H]1CC[C@]2(C)C3=C([C@H](OC(C)=O)[C@H](OC(C)=O)[C@@]2(O)C1)[C@@H]1CC[C@H]([C@H](C)CCCC(C)C)[C@@]1(C)C[C@H]3O |
| 4.5 µM | CC(=O)O[C@H]1C=C2[C@@H]3CC[C@H]([C@H](C)CCCC(C)C)[C@@]3(C)C[C@H]3O[C@@]23[C@@]2(C)CC[C@H](O)C[C@]12O |
| 20 µM | CC(=O)O[C@H]1C2=C([C@H](O)C[C@]3(C)[C@@H]([C@H](C)CCCC(C)C)CC[C@@H]23)[C@@]2(C)CC[C@H](O)C[C@]2(O)[C@H]1OC(C)=O |
